Key:
Assay type in all cases: biochemical
BTK-WT = biological target: T1, BTK-WT (Homo sapiens, UniProt Q06187); assay: Btk in vitro inhibitory activity (one of Method A TR-FRET, Method B electrophoretic mobility shift, Method C radiometric filter binding); conditions: E compounds, Table 17; read-out: IC50 BTK-WT
T1 construct: purified from insect cells as a full-length construct containing an N-terminal 6X-His tag; His6 (N); made in house; host or cells: insect cells (baculovirus Sf21 in Method B)
T1 sequence (Q06187 whole entry): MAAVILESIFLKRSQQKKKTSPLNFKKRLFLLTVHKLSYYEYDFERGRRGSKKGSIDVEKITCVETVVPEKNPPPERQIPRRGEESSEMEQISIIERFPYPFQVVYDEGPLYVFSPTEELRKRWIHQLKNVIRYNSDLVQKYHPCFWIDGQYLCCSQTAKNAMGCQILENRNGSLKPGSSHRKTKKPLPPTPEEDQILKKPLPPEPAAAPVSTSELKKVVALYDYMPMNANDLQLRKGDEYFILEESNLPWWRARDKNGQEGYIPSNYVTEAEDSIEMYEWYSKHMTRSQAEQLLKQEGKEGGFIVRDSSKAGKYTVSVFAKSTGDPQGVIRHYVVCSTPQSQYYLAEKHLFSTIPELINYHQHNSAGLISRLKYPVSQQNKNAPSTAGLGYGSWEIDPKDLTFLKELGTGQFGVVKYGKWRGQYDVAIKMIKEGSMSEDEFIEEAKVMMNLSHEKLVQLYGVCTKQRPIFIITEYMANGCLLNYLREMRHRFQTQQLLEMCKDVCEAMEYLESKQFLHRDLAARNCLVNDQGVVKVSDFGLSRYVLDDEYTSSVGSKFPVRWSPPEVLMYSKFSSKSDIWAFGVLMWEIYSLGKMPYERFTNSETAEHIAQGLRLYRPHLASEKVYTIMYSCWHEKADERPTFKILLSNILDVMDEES

TEC = biological target: T2, TEC (Homo sapiens, UniProt P42680); assay: Inhibition of a panel of kinases, in vitro HotSpot kinase assay: TEC; conditions: E compounds, Table 17
T2 sequence (P42680 1-631): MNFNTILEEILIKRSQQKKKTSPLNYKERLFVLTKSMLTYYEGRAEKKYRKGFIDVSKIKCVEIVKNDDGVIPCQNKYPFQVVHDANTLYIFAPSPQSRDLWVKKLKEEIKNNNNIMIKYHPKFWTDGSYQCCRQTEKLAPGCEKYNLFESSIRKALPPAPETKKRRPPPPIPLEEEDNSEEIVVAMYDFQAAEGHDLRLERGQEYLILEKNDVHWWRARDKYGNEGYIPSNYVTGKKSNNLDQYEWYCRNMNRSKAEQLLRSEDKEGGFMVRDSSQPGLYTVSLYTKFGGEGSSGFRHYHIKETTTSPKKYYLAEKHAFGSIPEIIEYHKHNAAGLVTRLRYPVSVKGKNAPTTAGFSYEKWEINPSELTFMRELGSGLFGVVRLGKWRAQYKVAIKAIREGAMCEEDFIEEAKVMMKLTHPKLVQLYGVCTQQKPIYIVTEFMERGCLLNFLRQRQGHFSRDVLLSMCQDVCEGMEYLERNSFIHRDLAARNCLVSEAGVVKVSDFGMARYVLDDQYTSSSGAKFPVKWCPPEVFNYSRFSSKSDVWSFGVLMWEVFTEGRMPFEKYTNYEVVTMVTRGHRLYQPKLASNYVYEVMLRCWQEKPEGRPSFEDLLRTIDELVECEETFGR
Protocol: (§1) The degree of inhibition of a panel of kinases is determined using the in vitro HotSpot kinase assay (purified enzymes, ^33P-ATP, an appropriate substrate and 1 μM ATP).

ITK = biological target: T3, ITK (Homo sapiens, UniProt Q08881); assay: Inhibition of a panel of kinases, in vitro HotSpot kinase assay: ITK; conditions: E compounds, Table 17
T3 sequence (Q08881 1-620): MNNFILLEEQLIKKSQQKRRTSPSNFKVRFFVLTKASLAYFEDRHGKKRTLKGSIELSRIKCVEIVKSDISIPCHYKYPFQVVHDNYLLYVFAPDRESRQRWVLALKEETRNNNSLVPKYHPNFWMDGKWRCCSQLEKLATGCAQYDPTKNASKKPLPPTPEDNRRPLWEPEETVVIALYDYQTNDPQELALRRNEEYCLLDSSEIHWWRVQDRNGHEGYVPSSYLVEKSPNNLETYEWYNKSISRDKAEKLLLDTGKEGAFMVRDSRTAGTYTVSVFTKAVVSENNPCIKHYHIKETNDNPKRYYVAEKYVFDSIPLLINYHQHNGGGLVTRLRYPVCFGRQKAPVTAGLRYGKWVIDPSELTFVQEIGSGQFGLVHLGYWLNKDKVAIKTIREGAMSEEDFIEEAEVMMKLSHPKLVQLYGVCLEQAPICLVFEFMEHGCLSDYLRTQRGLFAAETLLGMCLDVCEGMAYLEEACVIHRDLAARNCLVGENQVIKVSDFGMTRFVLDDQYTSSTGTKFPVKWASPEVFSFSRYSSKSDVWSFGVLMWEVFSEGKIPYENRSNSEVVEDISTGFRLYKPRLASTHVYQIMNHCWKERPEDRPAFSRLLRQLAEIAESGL
Protocol: as §1

EGFR = EGFR (Homo sapiens, UniProt P00533); assay: Inhibition of a panel of kinases, in vitro HotSpot kinase assay: EGFR; conditions: E compounds, Table 17
Sequence of EGFR (P00533 25-1210): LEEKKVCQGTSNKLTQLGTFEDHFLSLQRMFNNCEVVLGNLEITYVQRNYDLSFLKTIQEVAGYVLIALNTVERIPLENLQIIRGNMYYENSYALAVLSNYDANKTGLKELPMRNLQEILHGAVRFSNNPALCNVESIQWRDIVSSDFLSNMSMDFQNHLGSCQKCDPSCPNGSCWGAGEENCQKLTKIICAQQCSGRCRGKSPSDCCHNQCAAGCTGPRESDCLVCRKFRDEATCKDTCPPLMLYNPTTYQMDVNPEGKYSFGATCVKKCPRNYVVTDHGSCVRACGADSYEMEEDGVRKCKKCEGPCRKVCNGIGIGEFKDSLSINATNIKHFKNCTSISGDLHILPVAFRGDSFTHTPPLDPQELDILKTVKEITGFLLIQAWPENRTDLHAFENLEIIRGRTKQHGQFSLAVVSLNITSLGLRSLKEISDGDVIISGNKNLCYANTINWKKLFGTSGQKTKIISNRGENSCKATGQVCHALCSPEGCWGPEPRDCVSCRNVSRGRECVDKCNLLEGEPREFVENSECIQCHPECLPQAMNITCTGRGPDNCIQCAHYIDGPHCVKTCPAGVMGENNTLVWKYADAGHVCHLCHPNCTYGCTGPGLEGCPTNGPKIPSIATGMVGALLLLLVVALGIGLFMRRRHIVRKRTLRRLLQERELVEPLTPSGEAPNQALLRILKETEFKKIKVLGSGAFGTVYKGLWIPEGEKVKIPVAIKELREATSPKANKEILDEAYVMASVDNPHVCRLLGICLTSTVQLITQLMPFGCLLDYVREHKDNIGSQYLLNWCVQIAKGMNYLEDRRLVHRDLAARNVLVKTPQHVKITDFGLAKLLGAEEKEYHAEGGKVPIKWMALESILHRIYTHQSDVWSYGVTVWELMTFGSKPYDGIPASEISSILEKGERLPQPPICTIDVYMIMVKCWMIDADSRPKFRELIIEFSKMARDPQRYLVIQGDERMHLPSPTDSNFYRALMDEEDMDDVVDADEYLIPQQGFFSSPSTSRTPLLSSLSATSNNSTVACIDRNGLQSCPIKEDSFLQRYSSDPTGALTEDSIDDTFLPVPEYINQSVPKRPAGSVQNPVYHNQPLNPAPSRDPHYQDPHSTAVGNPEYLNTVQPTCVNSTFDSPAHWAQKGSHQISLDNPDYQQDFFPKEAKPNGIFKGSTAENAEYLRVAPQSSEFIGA
Protocol: as §1

Structure (SMILES)	IC50 (BTK-WT) [nM]	IC50 (TEC) [nM]	IC50 (ITK) [nM]	IC50 (EGFR) [nM]
C=CC(=O)N1CCC[C@@H](Nc2nnc(C(N)=O)c(Nc3ccc(C4(C#N)CCCC4)cc3)n2)C1 [Example E-46, (R)-3-(1-acryloylpiperidin-3-ylamino)-5-(4-(1-cyanocyclopentyl)phenylamino)-1,2,4-triazine-6-carboxamide]	≤ 10	≤ 10	≤ 10	≤ 10
C=CC(=O)N1CCC[C@@H](Nc2nnc(C(N)=O)c(Nc3ccc(S(C)(=O)=O)cc3)n2)C1 [Example E-47, (R)-3-(1-acryloylpiperidin-3-ylamino)-5-(4-(methylsulfonyl)phenyl-amino)-1,2,4-triazine-6-carboxamide]	≤ 10	≤ 10	≤ 10	≤ 10
C=CC(=O)N1CCC[C@@H](Nc2nnc(C(N)=O)c(Nc3cccc(-c4ncccn4)c3)n2)C1 [Example E-55, (R)-3-(1-acryloylpiperidin-3-ylamino)-5-(3-(pyrimidin-2-yl)phenylamino)-1,2,4-triazine-6-carboxamide]	≤ 10	≤ 10	10 to 100	10 to 100
C=CC(=O)N1CCC[C@@H](Nc2nnc(C(N)=O)c(Nc3ccc(N4CCOCC4=O)cc3)n2)C1 [Example E-62, (R)-3-(1-acryloylpiperidin-3-ylamino)-5-(4-(3-oxomorpholino)phenyl-amino)-1,2,4-triazine-6-carboxamide]	≤ 10	≤ 10	≤ 10	10 to 100
C=CC(=O)N1CCC[C@@H](Nc2nnc(C(N)=O)c(Nc3ccc(-c4nccs4)cc3)n2)C1 [Example E-63, (R)-3-(1-acryloylpiperidin-3-ylamino)-5-(4-(thiazol-2-yl)phenylamino)-1,2,4-triazine-6-carboxamide]	≤ 10	≤ 10	10 to 100	≤ 10
C=CC(=O)N1CCC[C@@H](Nc2nnc(C(N)=O)c(Nc3ccc(-c4nn[nH]n4)cc3)n2)C1 [Example E-64, (R)-5-(4-(2H-tetrazol-5-yl)phenylamino)-3-(1-acryloylpiperidin-3-ylamino)-1,2,4-triazine-6-carboxamide]	≤ 10	≤ 10	10 to 100	≤ 10
C=CC(=O)N1CCC[C@@H](Nc2nnc(C(N)=O)c(Nc3cccc(C(=O)N4CCOCC4)c3)n2)C1 [Example E-85, (R)-3-(1-acryloylpiperidin-3-ylamino)-5-(3-(morpholine-4-carbonyl)phenylamino)-1,2,4-triazine-6-carboxamide]	≤ 10	≤ 10	10 to 100	–
C=CC(=O)N1CCC[C@@H](Nc2nnc(C(N)=O)c(Nc3cccc(C(=O)NCc4ccccc4)c3)n2)C1 [Example E-86, (R)-3-(1-acryloylpiperidin-3-ylamino)-5-(3-(benzyl-carbamoyl)phenyl-amino)-1,2,4-triazine-6-carboxamide]	≤ 10	≤ 10	10 to 100	–
C=CC(=O)N1CCC[C@@H](Nc2nnc(C(N)=O)c(Nc3cccc(C(=O)N4CCCCC4)c3)n2)C1 [Example E-87, (R)-3-(1-acryloylpiperidin-3-ylamino)-5-(3-(piperidine-1-carbonyl)phenylamino)-1,2,4-triazine-6-carboxamide]	≤ 10	≤ 10	100 to 1000	–
C=CC(=O)NC[C@H]1CCCCN1c1nnc(C(N)=O)c(Nc2ccc(C(C)C)cc2)n1 [Example E-88, (R)-3-(2-(acrylamido-methyl)piperidin-1-yl)-5-(4-isopropyl-phenylamino)-1,2,4-triazine-6-carboxamide]	≤ 10	10 to 100	100 to 1000	–
C=CC(=O)NC[C@@H]1CCCCN1c1nnc(C(N)=O)c(Nc2ccc(C(C)C)cc2)n1 [Example E-89, (S)-3-(2-(acrylamido-methyl)piperidin-1-yl)-5-(4-isopropyl-phenylamino)-1,2,4-triazine-6-carboxamide]	100 to 1000	100 to 1000	1000 to 10000	–
C=CC(=O)NC[C@H]1CCCN1c1nnc(C(N)=O)c(Nc2ccc(C(C)C)cc2)n1 [Example E-90, (R)-3-(2-(acrylamido-methyl)pyrrolidin-1-yl)-5-(4-isopropylphenyl-amino)-1,2,4-triazine-6-carboxamide]	≤ 10	≤ 10	10 to 100	–
C=CC(=O)NC[C@@H]1CCCN1c1nnc(C(N)=O)c(Nc2ccc(C(C)C)cc2)n1 [Example E-91, (S)-3-(2-(acrylamido-methyl)pyrrolidin-1-yl)-5-(4-isopropylphenyl-amino)-1,2,4-triazine-6-carboxamide]	10 to 100	100 to 1000	1000 to 10000	–
C=CC(=O)N[C@@H]1CCCN(c2cnc(C(N)=O)c(Nc3cnn(C)c3)n2)[C@@H]1C [Example E-98, 5-((2R,3R)-3-acrylamido-2-methylpiperidin-1-yl)-3-(1-methyl-1H-pyrazol-4-ylamino)pyrazine-2-carboxamide]	≤ 10	≤ 10	100 to 1000	100 to 1000
C=CC(=O)N1CC[C@@H](N(C)c2cnc(C(N)=O)c(Nc3ccc(N4CCN(C)CC4)cc3)n2)C1 [Example E-111, (R)-5-((1-acryloylpyrrolidin-3-yl)(methyl)amino)-3-(4-(4-methylpiperazin-1-yl)phenylamino)pyrazine-2-carboxamide]	≤ 10	≤ 10	≤ 10	–
C=CC(=O)N1CC[C@@H](N(C)c2cnc(C(N)=O)c(Nc3cccc(-c4nccn4C)c3)n2)C1 [Example E-112, (R)-5-((1-acryloylpyrrolidin-3-yl)(methyl)amino)-3-(3-(1-methyl-1H-imidazol-2-yl)phenylamino)pyrazine-2-carboxamide]	≤ 10	≤ 10	10 to 100	–
C=CC(=O)N1CC[C@@H](N(C)c2cnc(C(N)=O)c(Nc3cccc(-n4nccn4)c3)n2)C1 [Example E-113, (R)-3-(3-(2H-1,2,3-triazol-2-yl)phenylamino)-5-((1-acryloylpyrrolidin-3-yl)(methyl)amino) pyrazine-2-carboxamide]	≤ 10	≤ 10	10 to 100	–
C=CC(=O)N1CC[C@@H](N(C)c2cnc(C(N)=O)c(Nc3cc(C)ns3)n2)C1 [Example E-114, (R)-5-((1-acryloylpyrrolidin-3-yl)(methyl)amino)-3-(3-methylisothiazol-5-ylamino)pyrazine-2-carboxamide]	≤ 10	≤ 10	≤ 10	–
C=CC(=O)N1CC[C@@H](N(C)c2cnc(C(N)=O)c(Nc3ccc(C4CCN(C)CC4)cc3)n2)C1 [Example E-115, (R)-5-((1-acryloylpyrrolidin-3-yl)(methyl)amino)-3-(4-(1-methylpiperidin-4-yl)phenylamino)pyrazine-2-carboxamide]	≤ 10	≤ 10	≤ 10	≤ 10
C=CC(=O)N1CC[C@@H](N(C)c2cnc(C(N)=O)c(Nc3ccc(C(O)(C(F)(F)F)C(F)(F)F)cc3)n2)C1 [Example E-120, (R)-5-((1-acryloylpyrrolidin-3-yl)(methyl)amino)-3-(4-(1,1,1,3,3,3-hexafluoro-2-hydroxypropan-2-yl)phenylamino)pyrazine-2-carboxamide]	≤ 10	≤ 10	≤ 10	–
CN(c1cnc(C(N)=O)c(Nc2ccc(C3CCN(C4CC4)CC3)cc2)n1)[C@@H]1CCN(C(=O)CCCl)C1 [Example E-122, (R)-5-((1-(3-chloropropanoyl)pyrrolidin-3-yl)(methyl)amino)-3-(4-(1-cyclopropylpiperidin-4-yl)phenylamino)pyrazine-2-carboxamide]	≤ 10	≤ 10	≤ 10	–

Source: US20210070748A1, “INHIBITORS OF BRUTONS TYROSINE KINASE” (Pharmacyclics LLC, priority 2015, published 2021)
